# Source: article PMC12176262 (The Febs Journal, 2025)
# Like-named read-outs stand apart in the source and are kept apart here.
# T1: MCM6 winged-helix domain (WHD) C721S mutant, residues 708-821 (human, UniProt Q14566 708-821, C721S)
# T1 sequence (looked up): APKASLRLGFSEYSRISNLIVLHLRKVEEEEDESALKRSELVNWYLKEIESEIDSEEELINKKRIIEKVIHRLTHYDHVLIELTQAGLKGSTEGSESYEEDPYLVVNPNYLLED
# Legend:
# MCM6 = conditions: ref [56], cited from earlier work
# [1] = molecular target: T1, MCM6 winged-helix domain (WHD) C721S …; experiment: fluorescence polarisation
Molecule,interaction with MCM6 (MCM6; both MBD-C and D regions mutated),interaction with MCM6 (MCM6; either MBD-C or D regions deleted),"fold, competition of MBD-C against FITC-MBD-C relative to FITC-MBD-D [1] [fold]"
Bloom syndrome helicase [BLM],weakened the interaction,do not interact,–
"WLSSDVICI (peptide, UniProt P54132 230-238, looked up) [BLM MCM6 binding domain C peptide (BLM 230-238), unlabeled]",–,–,1.7
